# Like-named read-outs stand apart in the source and are kept apart here. Non-standard residues stand in square brackets, D forms with d. Residues, ends and D or L forms follow the SMILES beside them. Nleu = CC(C)CNCC(=O)O; Nlys = NCCCCNCC(=O)O
# What was measured:
# [1] = tested on: human red blood cells; conditions: red cells of human, 6 h
# [2] = tested on: K. pneumoniae NCTC 418; experiment: microbe, parasite or virus in culture
# Procedure, shortened: (§1)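 Read-out was visible growth after MTT addition, the MIC being the lowest inhibitory peptide concentration. Bacteria grown to log phase in LB were exposed in MH medium to peptide from 64 μg/mL in twofold dilutions for 15-18h at 37°C.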
# [3] = tested on: A. baumannii ATCC19606; experiment: microbe, parasite or virus in culture
# Procedure, shortened: as §1
# [4] = tested on: S. aureus COL (MRSA); experiment: microbe, parasite or virus in culture; conditions: for MIC S. aureus COL (MRSA): supplement CSV
# Procedure, shortened: as §1
# [5] = tested on: P. aeruginosa PAO1; experiment: microbe, parasite or virus in culture; conditions: for MIC P. aeruginosa PAO1: supplement CSV
# Procedure, shortened: as §1
# [6] = tested on: P. aeruginosa PA14 4.18 (pmrB); conditions: for MIC P. aeruginosa PA14 4.18: supplement CSV
# [7] = tested on: P. aeruginosa PA14 4.13 (phoQ); conditions: for MIC P. aeruginosa PA14 4.13: supplement CSV
# [8] = tested on: K. pneumoniae OXA-48; experiment: microbe, parasite or virus in culture; conditions: for MIC K. pneumoniae OXA-48: supplement CSV
# Procedure: (§2) Minimum inhibitory concentration assay
# (§3) Antimicrobial activity was assayed against P. aeruginosa PAO1, K. pneumoniae NCTC418, E. coli W3110, A. baumannii ATCC 19606, methicillin-resistant S. aureus COL (MRSA), and for selected peptides on P. aeruginosa PA14 and the polymyxin-B-resistant derivative PA14 2P4, as well as the clinical isolates ZEM-1A and ZEM9A, K. pneumoniae OXA-48, S. aureus Newman, Enterobacter cloacae and Burkholderia cenocepacia. The minimal inhibitory concentration (MIC) was determined by using broth microdilution method. A colo ny of bacteria was picked and grown in Luria-Bertani (LB) medium overnight at 37°C. For E. coli BW25113 sbmA::kan the medium was supplemented with 25 mg/L of kanamycin. The next day, the culture was then regrown in LB medium to log phase (OD600 = 0.6 to 0.8), which lasted approximately 4 h, and diluted to an OD600 of 0.022 in the desired medium. Stock solutions of 1 mg/mL of the samples were prepared in sterilized milliQ water and diluted to the beginning concentration of 64 μg/mL in 300 μL Mueller Hinton (MH)-medium. The diluted samples were added to first well of 96-well microtiter plate (TPP, untreated, Faust Laborbedarf, AG, Schaffhausen) and diluted serially by ½. Finally, 4 μL of the bacterial suspension was inoculated into the sample solutions (150 μL/well) with a final inoculation of about 5∙10^5 CFU/mL. The plates were then incubated at 37°C for 15-18h. For each assay, sterility (broth only) and growth control (broth with bacterial inoculum, without antibiotics) were checked with two columns in the plate. The next day, 15 μL of 3-(4,5-dimethylthiazol-2-yl)-2,5-diphenyltetrazolium bromide (MTT) was added to each well of the plate, such a way that MIC was defined as the lowest concentration of the peptide that inhibited visible growth of the tested
# [9] = tested on: P. aeruginosa PA14 2P4 (pmrB); experiment: microbe, parasite or virus in culture; conditions: for MIC P. aeruginosa PA14 2P4: supplement CSV
# Procedure: as §2, §3
# [10] = tested on: E. cloacae; experiment: microbe, parasite or virus in culture; conditions: for MIC E. cloacae: supplement CSV
# Procedure: as §2, §3
# [11] = tested on: P. aeruginosa PA14; experiment: microbe, parasite or virus in culture; conditions: for MIC P. aeruginosa PA14: supplement CSV
# Procedure: as §2, §3
# [12] = tested on: P. aeruginosa ZEM9A; experiment: microbe, parasite or virus in culture; conditions: for MIC P. aeruginosa ZEM9A: supplement CSV
# Procedure: as §2, §3
# [13] = tested on: P. aeruginosa ZEM-1A; experiment: microbe, parasite or virus in culture; conditions: for MIC P. aeruginosa ZEM-1A: supplement CSV
# Procedure: as §2, §3
# [14] = tested on: E. coli W3110; experiment: microbe, parasite or virus in culture; conditions: for MIC E. coli W3110: supplement CSV
# Procedure, shortened: as §1
# [15] = polymyxin B resistant strain, 12.5% MHB pH 7.4, 16–20 h at 37 °C
# [16] = polymyxin B resistant strain, full MHB pH 7.4, 16–20 h at 37 °C
# [17] = supplement CSV, 12.5% MH pH 7.4
structure (smiles),measurement,setting,value
"CC(C)C[C@H](NC(=O)CN(CC(C)C)C(=O)[C@H](CC(C)C)NC(=O)CN(CCCCN)C(=O)[C@H](CC(C)C)NC(=O)CN(CC(C)C)C(=O)[C@H](CCCCN)NC(=O)CN(CC(C)C)C(=O)[C@H](CC(C)C)NC(=O)CN(CCCCN)C(=O)[C@@H](N)CCCCN)C(N)=O [EB9, reference compound] (H-K[Nlys]L[Nleu]K[Nleu]L[Nlys]L[Nleu]L-NH2; N-terminus assumed)",MHC human red blood cells,[1],>2000 µg/mL
same,"MIC K. pneumoniae, 12.5% MHB",[2]; NCTC 418,>32 / >32 μg/mL
same,"MIC K. pneumoniae, Full MHB",[2]; NCTC 418,>32 / >32 μg/mL
same,MIC K. pneumoniae NCTC418,"[2]; NCTC 418, 4 h, pH 7.4",>32 µg/mL
same,"MIC A. baumannii, 12.5% MHB",[3]; ATCC19606,16 µg/mL
same,"MIC A. baumannii, Full MHB",[3]; ATCC19606,> 32 µg/mL
same,"MIC S. aureus, 12.5% MHB",[4]; COL,>32 / 32 μg/mL
same,"MIC S. aureus, Full MHB",[4]; COL,>32 / 32 μg/mL
same,"MIC P. aeruginosa, 12.5% MHB",[5]; PAO1,4 µg/mL
same,"MIC P. aeruginosa, Full MHB",[5]; PAO1,32 µg/mL
"CC(C)C[C@H](NC(=O)[C@H](CC(C)C)NC(=O)[C@H](CC(C)C)NC(=O)[C@@H](CCCCN)NC(=O)[C@H](CC(C)C)NC(=O)[C@H](CC(C)C)NC(=O)[C@@H](CCCCN)NC(=O)[C@H](CC(C)C)NC(=O)[C@H](CC(C)C)NC(=O)[C@@H](CCCCN)NC(=O)[C@H](N)CCCCN)C(N)=O [ln69, reference compound] (H-[dK][dK]LL[dK]LL[dK]LLL-NH2)",MHC human red blood cells,[1],1000 µg/mL
same,"MIC P. aeruginosa PA14 4.18 (pmrB), 12.5% MHB",[6]; [15],2 µg/mL
same,"MIC P. aeruginosa PA14 4.18 (pmrB), full MHB",[6]; [16],16 µg/mL
same,MIC P. aeruginosa PA14 4.18,[6]; 12.5% MH pH 7.4,2 µg/mL
same,MIC P. aeruginosa PA14 4.18,[6]; full MH pH 7.4,16 µg/mL
same,"MIC P. aeruginosa PA14 4.13 (phoQ), 12.5% MHB",[7]; [15],2 µg/mL
same,"MIC P. aeruginosa PA14 4.13 (phoQ), full MHB",[7]; [16],4 µg/mL
same,MIC P. aeruginosa PA14 4.13,[7]; 12.5% MH pH 7.4,2 µg/mL
same,MIC P. aeruginosa PA14 4.13,[7]; full MH pH 7.4,4 µg/mL
same,"MIC K. pneumoniae OXA-48, 12.5% MHB","[8]; carbapenem-resistant, 12.5% MHB pH 7.4, 16–20 h at 37 °C",4/4 μg/mL
same,"MIC K. pneumoniae OXA-48, full MHB","[8]; carbapenem-resistant, full MHB pH 7.4, 16–20 h at 37 °C",4/4 μg/mL
same,MIC K. pneumoniae OXA-48,[8]; 12.5% MH pH 7.4,4 µg/mL
same,MIC K. pneumoniae OXA-48,[8]; full MH pH 7.4,4 µg/mL
same,"MIC P. aeruginosa PA14 2P4 (pmrB), 12.5% MHB",[9]; [15],4 µg/mL
same,"MIC P. aeruginosa PA14 2P4 (pmrB), full MHB",[9]; [16],32 µg/mL
same,MIC P. aeruginosa PA14 2P4,[9]; 12.5% MH pH 7.4,4 µg/mL
same,MIC P. aeruginosa PA14 2P4,[9]; full MH pH 7.4,32 µg/mL
same,"MIC E. cloacae, 12.5% MHB","[10]; 12.5% MHB pH 7.4, 16–20 h at 37 °C",2 µg/mL
same,"MIC E. cloacae, full MHB","[10]; full MHB pH 7.4, 16–20 h at 37 °C",4 µg/mL
same,MIC E. cloacae,[10]; 12.5% MH pH 7.4,2 µg/mL
same,MIC E. cloacae,[10]; full MH pH 7.4,4 µg/mL
same,"MIC P. aeruginosa PA14, 12.5% MHB","[11]; 12.5% MHB pH 7.4, 16–20 h at 37 °C, two different duplicate MIC determinations",2/2 μg/mL
same,"MIC P. aeruginosa PA14, full MHB","[11]; full MHB pH 7.4, 16–20 h at 37 °C, two different duplicate MIC determinations",2/2 μg/mL
same,MIC P. aeruginosa PA14,[11]; 12.5% MH pH 7.4,2 µg/mL
same,MIC P. aeruginosa PA14,[11]; full MH pH 7.4,2 µg/mL
same,"MIC P. aeruginosa ZEM9A, full MHB","[12]; clinical isolate, full MHB pH 7.4, 16–20 h at 37 °C",4 to 8 µg/mL
same,MIC P. aeruginosa ZEM9A,[12]; 12.5% MH pH 7.4,2 µg/mL
same,MIC P. aeruginosa ZEM9A,[12]; full MH pH 7.4,4 to 8 µg/mL
same,"MIC P. aeruginosa ZEM-1A, 12.5% MHB","[13]; clinical isolate, 12.5% MHB pH 7.4, 16–20 h at 37 °C, cells marked c: single measurement (in duplicates)",4 µg/mL
same,"MIC P. aeruginosa ZEM-1A, full MHB","[13]; clinical isolate, full MHB pH 7.4, 16–20 h at 37 °C, cells marked c: single measurement (in duplicates)",1 µg/mL
same,MIC P. aeruginosa ZEM-1A,[13]; 12.5% MH pH 7.4,4 µg/mL
same,MIC P. aeruginosa ZEM-1A,[13]; full MH pH 7.4,1 µg/mL
same,MIC K. pneumoniae NCTC418,[2]; [17],4 µg/mL
same,MIC K. pneumoniae NCTC418,"[2]; supplement CSV, full MH pH 7.4",8 µg/mL
same,"MIC E. coli, 12.5% MHB","[14]; E. coli W3110, 12.5% Müller–Hinton medium, 16–20 h at 37 °C, broth microdilution",2 µg/mL
same,"MIC E. coli, Full MHB","[14]; E. coli W3110, full Müller–Hinton medium, 16–20 h at 37 °C, broth microdilution",4 µg/mL
same,MIC E. coli W3110,[14]; 12.5% MH pH 7.4,2 µg/mL
same,MIC E. coli W3110,[14]; full MH pH 7.4,4 µg/mL
same,"MIC A. baumannii, 12.5% MHB","[3]; A. baumannii ATCC19606, 12.5% Müller–Hinton medium, 16–20 h at 37 °C",2 µg/mL
same,"MIC A. baumannii, Full MHB","[3]; A. baumannii ATCC19606, full Müller–Hinton medium, 16–20 h at 37 °C",2 to 4 µg/mL
same,MIC A. baumannii ATCC19606,[3]; [17],2 µg/mL
same,"MIC S. aureus, 12.5% MHB","[4]; S. aureus COL (MRSA), 12.5% Müller–Hinton medium, 16–20 h at 37 °C",2 µg/mL
same,"MIC S. aureus, Full MHB","[4]; S. aureus COL (MRSA), full Müller–Hinton medium, 16–20 h at 37 °C",16 µg/mL
same,MIC S. aureus COL (MRSA),[4]; 12.5% MH pH 7.4,2 µg/mL
same,MIC S. aureus COL (MRSA),[4]; full MH pH 7.4,16 µg/mL
same,MIC P. aeruginosa PAO1,[5]; 12.5% MH pH 7.4,2 µg/mL
same,MIC P. aeruginosa PAO1,[5]; full MH pH 7.4,4 µg/mL

# From PMC11571207, “Stereorandomized Oncocins with Preserved Ribosome Binding and Antibacterial Activity” (Journal of Medicinal Chemistry, 2024)
